Results as given in patent US7390411B2, “Method for preparing a compound of interaction of active substances with a porous support using supercritical fluid” (Pierre Fabre Medicament, priority 2001, dated 2008).
Converted amounts (≈) assume the structure as drawn.

What was measured:
Assay type in all cases: physicochemical
[1] = Dissolution test ketoprofen powders (UV 260 nm); conditions: water, 37° C.
Experimental: Powder Analysis Protocol: Dissolution Test Operating conditions:
UV analysis at a wavelength of 260 nm.
Prepare a standard solution in H2O. Ensure that an absorbance<2 is maintained.
(§1) Execution of the Analysis:
(§2) Dissolve the powder with magnetic stirring using a stirrer bar in a waterbath at 37±0.5° C.
(§3) Withdraw 2 ml of this suspension after 2 hours of stirring and filter it on a 0.45 μm Gelman GHP filter. Carry out the UV analysis, ensuring that the absorbance is less than 2. If it is not, carry out dilution.

[2] = Dissolution tests on product F12511 (HPLC, 5% sodium lauryl sulfate, 2 hours)
Experimental: Dissolution Tests on Product F12511
Spectrophotometric detector set at 220 nm.
C8 graft column (Lichrospher 60RP-Select B), dimensions 25×0.4 cm, particle size: 5 μm.
Flow Rate: 1 ml/min Preparation of Solutions: Solution Under Examination
Introduce an amount of complex corresponding to approximately 100 mg of product F12511 into 100 ml of 5% (m/V) sodium lauryl sulfate in H2O. Subject the system to magnetic stirring in a waterbath at 37° C.±0.5° C. Withdraw 2 ml sample of this suspension after 2 hours of stirring and filter it on a Gelman GHP Acrodisc GF (R) filter.
Dilute the samples 1/5 in the mobile phase. Carry out 2 tests.
Introduce 8 mg of reference product F12511 (starting material used to prepare the complex) in a 100 ml flask and dissolve it in 1 ml of tetrahydrofuran (THF). Make up to volume with the mobile phase.
Inject 20 μl of each control solution. Measure the area of the peak of product F12511 and represent its variation as a function of concentration in the form of a graph. The correlation coefficient is>0.995. Inject 20 μl of the test solution. Measure the area of the peak of product F12511 present in the test solution, and ensure that it lies between that of T1 and of T5 in the range.
If this is not the case, perform a dilution in the solubilizing solvent and/or adjust the injection volume of the test solution.
From this, work out the concentration X (μg/ml) of the test solution.
Calculate the amount of dissolved product F12511 in mg/ml by the following formula:
[formula] • Y: injection volume of the test solution • F: dilution factor Measurements of Specific Surface Areas

[3] = Dissolution test terfenadine powders (UV 259 nm); conditions: water, 37° C.
Experimental: Powder Analysis Protocol: Dissolution Test Operating Conditions:
UV analysis at a wavelength of 259 nm.
Prepare a standard solution in 1% (m/v) sodium lauryl sulfate in H2O. Ensure that an absorbance<2 is maintained.
as §1, §2, §3

[4] = Measurements of specific surface areas (BET); conditions: specific surface area
Experimental: The specific surface area measurements were carried out on a BET ASAP 2010 adsorption apparatus from Micrometrics.
Before the measuring phase, the sample requires a degassing step. This step consists in evacuating the cell containing the sample until a vacuum of at least 0.003 mm Hg, or approximately 0.004 mbar, is reached stably. This degassing is carried out at a temperature of 50° C. (duration: approximately 16 hours).
At the end of degassing, the cell containing the sample is filled with helium and transferred to the measuring station, where evacuation is repeated before analysis.
Processing of the Adsorption Isotherms
The specific surface area was determined in accordance with the BET theory, i.e., in accordance with the following relationship:
[formula] • W: volume of gas adsorbed (under standard temperature and pressure (STP) conditions) per unit mass of sample. • Wm: volume of gas adsorbed (under STP conditions) in a monolayer per unit mass of sample. • P0: saturation pressure. • C: constant.
The isotherm is then plotted as follows:
As a function of P/P0: we then have a straight line of which the slope and the ordinate at the origin give us C and Wm.
The specific surface area is then given by the following formula: a(m^2·g^−1)=NmNAE • E: space occupancy of the nitrogen molecule. For nitrogen at 77 K operating temperature this is generally taken to be E=0.162 nm^2. • NA: Avogadro's number. • Nm: number of moles of nitrogen adsorbed on a monolayer per unit mass of sample, calculated from Wm. The measurements are carried out within a conventional field of relative pressure in which the BET theory is valid, namely 0.05<P/P0<0.2. In order to verify the validity of this theory, one practical means is to look at the direction in which the quantity Nadsorbed. (1-P/P0) changes as a function of P/P0: it should increase continually with P/P0.
Verify the range of applicability of the BET theory in this way, and if necessary readjust the range of relative pressures.

[5] = Comparative Example 2, dissolution after two hours, 5% sodium lauryl sulfate, 37° C.
[6] = Comparative Example 1, 2 hours, 5% sodium lauryl sulfate, 37° C.

In the case of `CC(C(=O)O)c1cccc(C(=O)c2ccccc2)c1` (stereo not shown) [Ketoprofen], the “concentration after 2 hours of dissolution, Active principle alone” value [1] is reported as 333 µg/mL.

With `CCCCCCCCCCCCS[C@H](C(=O)Nc1cc(C)c(O)c(C)c1C)c1ccccc1` the Dissolution ([2]; Comparative Example 5 (F12511 generated by SAS/ethanol), 2 hours, 5% sodium lauryl sulfate, 37° C.) was 80 µg/mL, the Dissolution ([2]; Comparative Example 6 (F12511 generated by SAS/DMSO), 2 hours, 5% sodium lauryl sulfate, 37° C.) was 57 µg/mL and the Dissolution ([2]; Comparative Example 7 (F12511 generated by RESS), 2 hours, 5% sodium lauryl sulfate, 37° C.) was 8 µg/mL.

With `CC(C)(C)c1ccc(C(O)CCCN2CCC(C(O)(c3ccccc3)c3ccccc3)CC2)cc1` (stereo not shown) [Terfenadine] the “concentration after 2 hours of dissolution, Active principle alone” value [3] was less than 1 µg/mL.

For `CCCCCCCCCCCCS[C@H](C(=O)Nc1cc(C)c(O)c(C)c1C)c1ccccc1` [F12511 precipitated by RESS], the Dissolution [2, 5] was 76 µg/mL, the Dissolution ([2]; summary table, powder after precipitation or coprecipitation only, no molecular diffusion, listed as Comp. Ex. 2) was 76 µg/mL and the BET ([4]; Comparative Example 2) was 67 m^2/g.

In the case of `CCCCCCCCCCCCS[C@H](C(=O)Nc1cc(C)c(O)c(C)c1C)c1ccccc1` [Example F12511, (S)-2′,3′,5′-trimethyl-4′-hydroxy-α-dodecylthiophenyl-acetanilide], the Dissolution [2, 6] is reported as 6 to 12 µg/mL, the Dissolution [2, 5] is reported as 12 µg/mL and the Dissolution ([2]; Comparative Example 3, 2 hours, 5% sodium lauryl sulfate, 37° C.) is reported as 12 µg/mL. For the same compound, the Dissolution ([2]; Comparative Example 5 (F12511 generated by SAS/ethanol), 2 hours, 5% sodium lauryl sulfate, 37° C., listed as F12511 before precipitation) was roughly 15 µg/mL, the Dissolution ([2]; Comparative Example 6 (F12511 generated by SAS/DMSO), 2 hours, 5% sodium lauryl sulfate, 37° C., listed as F12511 before precipitation) was 5 µg/mL and the Dissolution ([2]; Comparative Example 7 (F12511 generated by RESS), 2 hours, 5% sodium lauryl sulfate, 37° C., listed as F12511 before precipitation) was roughly 10 µg/mL. The Dissolution ([2]; Example 4 (coprecipitation SAS/DMSO with γ-cyclodextrin), 2 hours, 5% sodium lauryl sulfate, 37° C.) was roughly 15 µg/mL, the “Dissolution of 2 hours, Active principle alone” value ([2]; F12511 alone) was 12 µg/mL and the “solubility after 2 hours in 5% aqueous sodium lauryl sulfate solution” value ([2]; after 2 hours, 5% aqueous sodium lauryl sulfate) was 6 µg/mL (≈ 12.8 µM). It also gave a BET ([4]; Comparative Example 1) of 14 m^2/g and a BET ([4]; Comparative Example 2) of 14 m^2/g.

For `CCCCCCCCCCCCS[C@H](C(=O)Nc1cc(C)c(O)c(C)c1C)c1ccccc1` [F12511 precipitated by SAS], the Dissolution [2, 6] was 62 µg/mL, the Dissolution ([2]; summary table, powder after precipitation or coprecipitation only, no molecular diffusion) was 62 µg/mL and the BET ([4]; Comparative Example 1) was 54 m^2/g.
